Reference: patent publication US20100150839A1, “Compositions and Methods for Modulating Cognitive Function” (Massachusetts Institute of Technology, priority 2005, published 2010)

System: cultured primary hippocampal neurons
Assay: Translation reporter assay: EGFP-αCaMKII 3′ UTR reporter mRNA transfected into neurons
Assay type: cell-based, rat

N#CC(=C(/N)Sc1ccccc1N)/C(C#N)=C(\N)Sc1ccccc1N [U0126]
Translation of EGFP-αCaMKII-A20 reporter mRNA: still more strongly inhibited
